Results reported in patent US20130150399A1, “INHIBITORS OF THE UNFOLDED PROTEIN RESPONSE AND METHODS FOR THEIR USE” (The Board of Trustees of the Leland Stanford Junior …, priority 2006, published 2013).

Legend:
caspase-3 = experiment: Cleavage of caspase-3, HT1080 cells; format: cell-based, human; conditions: 2.5 μM
Procedure: (§1) Cells (2×10^6) were cultured in 10-cm dishes, collected using a cell scraper at 4° C., and lysed by addition of 150 μl cell lysis buffer [50 mM Tris pH 7.4, 150 mM NaCl, 10% glycerol, 0.5% Triton X-100. 0.5% NP-40, 2 mM Na3VO4, 20 mM beta-glycerophosphate, 10 mM NaF, 1 mM DTT, 1 mM PMSF). Lysates were centrifuged for 5 min at 10,000×g, and proteins (˜40 μg) were resolved by SDS-PAGE followed by semi-dry transfer to nitrocellulose membranes. Membranes were blocked in TBS-5% milk supplemented with 0.1% Tween-20. The blots were then probed overnight with relevant antibodies, washed, and incubated for 2 hours with species-specific secondary antibodies conjugated to horseradish peroxidase. After washing in block solution, immunoreactive material was detected by enhanced chemiluminescence (SuperSignal West Dura Extended, Pierce, Inc., Rockville, Ill.).
(§2) A. Effect of irestatin 9389 on PERK and ATF6 pathways. […] Protein lysates were analyzed by Western blot analysis using antisera specific for ATF6 (top), CHOP/GADD153 (middle) or actin (bottom). […] Cells were harvested, counted, and allowed to grow under normal culture conditions for 11-12 days. […] D. Quantification of clonogenic survival assay. […] F. Quantification of TUNEL-positive cells. […] Cells were harvested at the indicated times and counted by hemocytometer. Values represent the mean calculated from triplicate experiments+/−SEM. […]

CHOP/GADD153 = experiment: Western blot of CHOP/GADD153, hypoxic HT1080 cells; format: cell-based, human; conditions: 2.5 μM; hypoxia for 6-12 hours
Procedure: as §1, §2

[1] = Blood chemistry, complete blood count and histopathology; format: in vivo, mice
Procedure: Complete blood counts (CBC's) and clinical chemistry panels were performed on blood obtained by cardiac puncture after euthanasia with CO2 Gross necropsies were performed, all major viscera were harvested, fixed in 10% buffered neutral formalin, routinely processed for paraffin embedding, and stained with hematoxylin and eosin (H&E). Sections were analyzed by a board-certified veterinary pathologist (DMB). […]

[2] = irestatin-treated nude mice, terminal cardiac blood draw, mean

In the case of `Cc1csc(NC(=O)CSc2nc3c(c(C(F)(F)F)c2C#N)CCC3)n1` [Compound 9389], the “cleavage of caspase-3” value (caspase-3; 36 hours of hypoxia) was “stimulated cleavage of caspase-3”, the caspase-3 processing (caspase-3; normal oxygen conditions) was “no effect on caspase-3 processing” and the “expression of CHOP/GADD153” value (CHOP/GADD153) was “increased”. The “tolerability (kidney, liver, bone marrow function)” value ([1]; 3-4 doses of 50 mg/kg every other day) was “well tolerated”, the “fasting blood glucose levels versus vehicle” value ([1]; irestatin- and vehicle-treated animals) was “no significant difference in fasting blood glucose levels” and the ALT [1, 2] was 29.4 IU/L. For the same compound, the AST [1, 2] was 117.775 IU/L, the “Anion Gap” value [1, 2] was 17.975 mM and the “Carbon Dioxide” value [1, 2] was 25.075 mM. For the same compound, the Chloride [1, 2] was 116.75 mM, the Cholesterol [1, 2] was 102 mg/dL and the Glucose [1, 2] was 124.5 mg/dL. The HCT [1, 2] was 47%, the HGB [1, 2] was 14.625 gm/dL and the Na/K Ratio [1, 2] was 20.3. For the same compound, the Platelets [1, 2] was 805.5 K/uL, the Potassium [1, 2] was 7.5175 mM and the RBC [1, 2] was 10.375 M/uL. For the same compound, the Sodium [1, 2] was 152.25 mM, the “Total Bilirubin” value [1, 2] was 0.3 mg/dL and the WBC [1, 2] was 5.19 K/uL. The “histopathological analysis of all major organs” value ([1]; three doses, 50 mg/kg) was “no significant differences between the vehicle and irestatin treatment groups”.
